We go through 18 compounds from patent publication US4448730A, “Hydroxybenzohydroxamic acids, benzamides and esters and related compounds as ribonucleotide reductase inhibitors” (priority 1982, dated 1984).

Data set [1] relates to L1210 leukemia. Kind of data set: L1210 leukemia in mice, increase in life span (Table 2). The data set is classed as in vivo. Conditions: Mus musculus, L1210, 192 h, read-out: ILS, average percent (± standard error) increase in life span; for ILS at 200 mg/kg: 200 mg/kg daily for 8 days; for ILS at 500 mg/kg: 500 mg/kg daily for 8 days. From the text: As stated above, the compounds represented by formula I above have the ability to inhibit ribonucleotide reductase, an enzyme involved in the reductive conversion of ribonucleotides to deoxyribonucleotides. This enzymatic reaction is a rate controlling step in the biosynthetic pathway leading to DNA and cell replication. In general, the ribonucleotide reductase level is closely correlated with cellular replication.
(§1) Table 2 gives ribonucleotide reductase data for certain compounds of formula I. In the table, column 1 gives the substitution pattern in the benzene ring, column 2, the R^1 group, column 3, the ID50 (inhibitory dose in micromolar concentration which inhibits ribonucleotide reductase by 50%), column 4, the average percent (± standard error) increase in the life span (ILS) of 8 treated mice inoculated with L1210 leukemia compared with 8 control mice also inoculated with L1210. The daily dose level of the drug which was administered for 8 days is indicated in column 5. Table 3 gives the relative potency of the compounds represented by formula I above as inhibitors of ribonucleotide reductase compared to hydroxyurea whose potency was given an arbitrary value of 1.0. In table 3, column 1 gives the name of the compound and column 2 the relative inhibitory potency of each of the compounds of column 1.

Data set [2] concerns the target T1, ribonucleotide reductase (Rattus norvegicus, UniProt Q4KLN6).
T1 construct: partially purified from Novikoff hepatoma; from tissue; host or cells: Novikoff hepatoma (rat tumour), partially purified enzyme
T1 sequence (Q4KLN6 1-390): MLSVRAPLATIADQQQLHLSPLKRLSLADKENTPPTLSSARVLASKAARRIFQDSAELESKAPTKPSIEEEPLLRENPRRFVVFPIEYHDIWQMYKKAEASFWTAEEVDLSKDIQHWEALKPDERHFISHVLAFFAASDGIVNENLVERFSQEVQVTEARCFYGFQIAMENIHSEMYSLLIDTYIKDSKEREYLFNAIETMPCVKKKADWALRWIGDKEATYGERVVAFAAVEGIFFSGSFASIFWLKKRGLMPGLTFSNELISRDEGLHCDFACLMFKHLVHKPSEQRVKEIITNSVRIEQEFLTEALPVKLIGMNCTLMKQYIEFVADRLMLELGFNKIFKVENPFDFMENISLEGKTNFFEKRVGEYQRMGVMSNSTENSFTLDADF
Kind of data set: Inhibition of ribonucleotide reductase (conversion of CDP to dCDP), enzyme partially purified from Novikoff hepatoma. It is filed as biochemical. Conditions: for IC50: CDP to dCDP, 40 min at 30° C, pH 7.5, enzyme from Novikoff hepatoma, read-out: ID50 (inhibitory dose which inhibits ribonucleotide reductase by 50%); for Inhibitory Potency for ribonucleotide reductase: relative to hydroxyurea, given an arbitrary value of 1.0.
From the text: as §1
In the above determination of ID50 's in Table 3, ribonucleotide reductase is partially purified from Novikoff hepatoma by a procedure similar to that set forth by Elford et al. J. Biol. Chem. 245, 5228 (1970). The activity of the enzyme was measured by a slightly modified assay procedure originally developed by Reichard et al. id, 236, 1150 […]. This procedure measures the conversion of CDP to dCDP. The assay mixture (0.34 ml.) contains 3 μCi of [^3 H] CDP (specific activity […]), 3.3 μmole ATP, 5.9 μmoles magnesium chloride, 8.8 μmoles Hepes buffer at pH=7.5, 15 μmoles dithiothreitol and enzyme protein between 0.4 and 1.3 mg. Incubation was provided for forty minutes at 30° C. Ion exchange chromatography employing Dowex 50 (H^+) resin is used to separate the product from the substrate. The inhibitors were dissolved in water and a mixture of water and up to 1 % ethanol or 2% dimethylsulfoxide, neither one of which inhibited the enzyme at these concentrations. Each inhibitor was tested at a minimum of three concentrations and the active compounds reassayed at least one additional time. ID50 's in μmoles were estimated from graphs summarizing results for each compound.

The subject of data set [3] is L-1210 Leukemia. It is filed as in vivo, mice. Conditions: once or twice daily for 9-10 days.
Method: (§2) All compounds were administered once or twice daily for 9-10 days starting 24 hours after inoculation with the tumor.
In data set [4] the test system is L-1210 Leukemia. The data set is classed as in vivo, mice. The method, then:
In a series of studies against L-1210 leukemia, in addition to those studies set forth in Table 2 and 4, 3,4-dihydroxybenzohydroxamic acid gave the following increases in survival times at the dose levels specified. Drug was administered daily for nine days.
Similar data for 3,4,5-trihydroxybenzohydroxamic acid are as follows: […]

Data set [5] has as its system L-5563 lymphoma. The data set can be described thus: Activity vs. L-5563 lymphoma (Table 6). Conditions: once or twice daily for 9-10 days.
Method: as §2
Data set [6] relates to Lewis Lung. Kind of data set: Activity vs. Lewis Lung (Table 5). The data set is classed as in vivo, mice. Conditions: once or twice daily for 9-10 days.
Method: as §2
For data set [7], the system named is CA-755 adenocarcinoma. The data set can be described thus: Activity vs. CA-755 adenocarcinoma (Table 7). The data set is classed as in vivo, mice. Conditions: once or twice daily for 9-10 days.
Method: as §2
The conditions of data set [8]: Biochemical Pharmacology 1971; cited from earlier work.
In data set [9] the test system is L-1210 Leukemia. The data set is classed as in vivo, mice. From the text:
The above data clearly show the enhanced anti-tumor activity of trihydroxybenzohydroxamic acid where the hydroxy groups are vicinal but no hydroxyl is ortho. Similar data are available for the vicinal dihydroxybenzohydroxamic acids with and without an ortho-hydroxy substituent in an L-1210 leukemic test in mice as follows: […]
The source holds these as a separate data set.

Data set [10] has as its system DNA synthesis in Ehrlich ascites tumor cells. Conditions: cited from earlier work; for inhibition of / selectivity against DNA synthesis (in words) / selectivity against DNA synthesis (in words): Gale and Hynes 1968; for inhibition of / selectivity against DNA synthesis (in words): in vitro; for selectivity against DNA synthesis (in words): only after exposure of the cells for 1-2 hours.

The test system of data set [11] is L-1210 Leukemia. Kind of data set: Direct side-by-side comparison with L-1210 leukemia. It is filed as in vivo, mice. From the text: In a direct side-by-side comparison with L-1210 leukemia, the following results were obtained.
Data set [12] concerns P388 Leukemia. The data set can be described thus: Activity vs. P388 Leukemia (Table 8). Conditions: once or twice daily for 9-10 days. The data set is classed as in vivo, mice.
Method: as §2

Where two headings read alike, the source gives them in different places.

As for `NC(=O)c1ccc(O)c(O)c1O` [2,3,4-trihydroxybenzamide], the ILS (in general, the gain in survival time of treated over control animals, in per cent) at 200 mg/kg in [1] came to 48 ± 7%. Besides, in data set [2], the IC50 was 5 µM and the “Inhibitory Potency for ribonucleotide reductase” value was determined as 100.

Take `O=C(NO)c1ccc(O)c(O)c1O` [2,3,4-trihydroxybenzohydroxamic acid]: the ILS at 125 mg/kg in data set [1] (125 mg/kg daily for 8 days) was determined as 30 ± 7%. In addition, in [2], the IC50 was 3.5 µM. In data set [2], the “Inhibitory Potency for ribonucleotide reductase” value is listed as 140. For the same compound, the “% increase in survival time” value in data set [3] (25-50 mg/kg) is recorded as 17-21%. The figures for the “% increase in survival” value in data set [4] (25 mg/kg daily for nine days), in data set [4] (50 mg/kg daily for nine days) and in [4] (100 mg/kg daily for nine days) were 10%, 8% and 16%, respectively. For the same compound, the “toxic (in column % inhibition)” value in [5] (25-50 mg/kg) was “toxic”. The “% tumor inhibition” value in data set [6] (25-50 mg/kg) is recorded as 13-14%. In [7] (25-50 mg/kg), the % inhibition (usually the share of the control response that was lost under treatment) is listed as 12-18%.

For `O=C(NO)c1cccc(O)c1O` [2,3-dihydroxybenzohydroxamic acid], the ILS at 200 mg/kg in [1] is 36 ± 11%. The IC50 in [2] is 8 µM. Besides, in data set [2], the “Inhibitory Potency for ribonucleotide reductase” value is 63. In data set [8], the “antimitogenic activity (in words)” value is reported as “most active compounds tested”. In addition, the “% increase in survival time” value in data set [9] (300 mg/kg) is “about 0%”; in data set [9] (450 mg/kg) it was “about 0%”; in data set [11] (125 mg/kg), 0%; in [11] (250 mg/kg), 16%. In data set [10], the “inhibition of / selectivity against DNA synthesis (in words)” value is reported as “marked selectivity against DNA synthesis with a greater inhibition than that produced by salicylhydroxamic acid”.

With `O=C(NO)c1ccc(O)cc1O` [2,4-dihydroxybenzohydroxamic acid], the increase in lifespan (ILS) at 500 mg/kg in [1] turned out to be 42 ± 7%. In data set [2], the IC50 amounted to 250 µM and the “Inhibitory Potency for ribonucleotide reductase” value is 2.0.

As to `O=C(NO)c1cc(O)ccc1O` [2,5-dihydroxybenzohydroxamic acid], the increase in lifespan (ILS) at 300 mg/kg in data set [1] (300 mg/kg daily for 8 days) is 30 ± 14%. Moreover, in data set [2], the IC50 was found to be 200 µM and the “Inhibitory Potency for ribonucleotide reductase” value is on record as 2.5.

Turning to `O=C(NO)c1c(O)cccc1O` [2,6-dihydroxybenzohydroxamic acid], the ILS at 88 mg/kg in data set [1] (88 mg/kg daily for 8 days) is 23 ± 11%. Also, in data set [2], the IC50 was determined as 100 µM and the “Inhibitory Potency for ribonucleotide reductase” value came to 5.0.

On to `Nc1ccc(C(=O)NO)c(O)c1` [2-hydroxy-4-aminobenzoyl compound], for which the “antimitogenic activity (in words)” value in data set [8] is “inactive”.

With `CNC(=O)c1cc(O)c(O)c(O)c1` [3,4,5 NHCH3], the ILS at 500 mg/kg in data set [1] came out at 60 ± 29%. Besides, the IC50 in [2] turned out to be 25 µM.

Take `NC(=O)c1cc(O)c(O)c(O)c1` [3,4,5-trihydroxybenzamide]: in data set [1] (250 mg/kg daily for 8 days), the ILS at 250 mg/kg was 42 ± 5%. In addition, the IC50 in data set [2] turned out to be 10 µM. Further, the “Inhibitory Potency for ribonucleotide reductase” value in data set [2] stood at 50. The results for the “% increase in survival time” value in [3] (150 mg/kg), in [3] (175 mg/kg) and in [3] (225 mg/kg) were 50%, 55% and 10%, respectively. Moreover, the entries for the “% Prolongation” value in data set [12] (175 mg/kg), in [12] (200 mg/kg) and in data set [12] (225 mg/kg) were 43%, 40% and 55%, respectively. The “toxic (in column % inhibition)” value in data set [5] (200 mg/kg) is on record as “toxic”. Besides, the “% tumor inhibition” value in data set [6] (200 mg/kg) is reported as 21%. Moreover, the “% inhibition” value in data set [7] (200 mg/kg) was found to be 38%.

With `NC(=O)c1ccc(O)c(O)c1` [3,4-dihydroxybenzamide], the ILS at 1200 mg/kg in [1] (1200 mg/kg daily for 8 days) was found to be 35 ± 11%. Moreover, in [2], the IC50 was found to be 50 µM and the “Inhibitory Potency for ribonucleotide reductase” value came out at 10.

Regarding `O=C(Cc1ccc(O)c(O)c1)NO` [3,4-dihydroxyphenylacetohydroxamic acid], the “% increase in survival time” value in [3] (606 mg/kg) is listed as 57%.

For `Nc1cc(N)cc(C(=O)NO)c1` [3,5-Diaminobenzohydroxamic acid], in [10], the “selectivity against DNA synthesis (in words)” value was “relative selectivity against DNA synthesis”.

Consider `O=C(NO)c1cc(O)cc(O)c1` [3,5-dihydroxybenzohydroxamic acid], for which the increase in lifespan (ILS) at 1000 mg/kg in [1] (1000 mg/kg daily for 8 days) is 52 ± 22%. In [2], the IC50 stood at 400 µM and the “Inhibitory Potency for ribonucleotide reductase” value came to 1.2.

With `CC(C)c1cc(C(=O)NO)c(O)c(C(C)C)c1` [3,5-diisopropylsalicylhydroxamic acid], the “inhibition of DNA synthesis, rank in words” value in data set [10] (Gale, Hynes and Smith 1970) is “most active compound”.

Turning to `Nc1ccc(C(=O)NO)cc1` [4-aminobenzohydroxamic acid], in data set [8], the “antimitogenic activity (in words)” value was “inactive”. The “selectivity against DNA synthesis (in words)” value in data set [10] is “relative selectivity against DNA synthesis”.

For `NC(=O)c1ccccc1` [benzamide], the “inhibition of / selectivity against DNA synthesis (in words)” value in data set [10] was “totally inactive”.

`NC(=O)NO` [hydroxyurea, reference compound]: the “% increase in survival time” value in [3] (30 mg/kg) is given as 27%; in data set [3] (40 mg/kg), 27%; in [3] (60 mg/kg), 92%; in data set [3] (71 mg/kg), 58%. Besides, the results for the “% tumor inhibition” value in data set [6] (71 mg/kg) and in [6] (400 mg/kg) were 27% and 44%, respectively. Besides, the “% inhibition” value in [7] (71 mg/kg) turned out to be 27%; in [7] (200 mg/kg) it was 26%.

Regarding `O=C(Oc1ccccc1)c1cc(O)c(O)c(O)c1` [phenyl 3,4,5-trihydroxybenzoate], in data set [2], the “Inhibitory Potency for ribonucleotide reductase” value is given as 33. Further, the “% increase in survival time” value in data set [3] (200 mg/kg) was found to be 56%. In addition, the “% inhibition” value is listed as 19% in data set [5] (200 mg/kg), 27% in data set [7] (100 mg/kg) and 11% in data set [7] (200 mg/kg). For the same compound, the “% tumor inhibition” value in data set [6] (50 mg/kg) worked out at 2%; in data set [6] (200 mg/kg), 14%.
